{"source": "patent US10538487B2", "about": "“Sulfonylureas and related compounds and use of same” (priority 2015, dated 2020)", "assay": "Single dose pharmacokinetic study in mice (iv 4 mg/Kg, po 20 mg/Kg), plasma concentration post-dosing", "format": "in vivo, mouse", "conditions": "male, C57BL/6, mouse, plasma, mouse; for concentration at 5 min: 5 min post dosing; for concentration at 0.25 h: 0.250 h post dosing; for concentration at 0.5 h: 0.500 h post dosing; for concentration at 1 h: 1.00 h post dosing; for concentration at 2 h: 2.00 h post dosing; for concentration at 4 h: 4.00 h post dosing; for concentration at 8 h: 8.00 h post dosing; for concentration at 24 h: 24.0 h post dosing", "experimental": "This is advantageous leading to comparatively lower doses or less frequent administration. The procedure followed was: Male C57BL/6 mice were used at 7-9 weeks age with 3 animals per group. Mice were dosed with test compound using single intravenous bolus or oral gavage. Blood samples were taken via submandibular or saphenous vein for analysis of plasma concentrations of compound by LC-MS/MS at the following timepoints: IV (3 mice): 0.083, 0.25, 0.5, 1, 2, 4, 8 and 24 hours post dosing, PO (3 mice): 0.25, 0.5, 1, 2, 4, 8 and 24 hours post dosing. LC-MS/MS method for the quantitative determination of test compound in corresponding biological matrix was developed. […] The results are shown graphically in FIGS. 1A to 1C (MCC950) and FIGS. 2A to 2C (MCC7840).", "note": "Where two headings read alike, the source gives them in different places."}
{"compound": "CC(C)(O)c1coc(S(=O)(=O)NC(=O)Nc2c3c(cc4c2CCC4)CCC3)c1", "note": "[MCC_000950_016, N-((1,2,3,5,6,7-hexahydro-s-indacen-4-yl)carbamoyl)-4-(2-hydroxypropan-2-yl)furan-2-sulfonamide, reference compound]", "values": [{"measurement": "concentration at 5 min", "setting": "iv, 4 mg/kg, IV 4 mg/Kg, individual mice M1-M3, read-out: Plasma concentration, IV Time 0.0833 h", "value": 20200, "unit": "ng/mL"}, {"measurement": "concentration at 5 min", "setting": "iv, 4 mg/kg, IV 4 mg/Kg, mean of 3 mice, read-out: Plasma concentration, IV Time 0.0833 h, Mean IV", "value": 18400, "unit": "ng/mL"}, {"measurement": "concentration at 0.25 h", "setting": "iv, 4 mg/kg, IV 4 mg/Kg, individual mice M1-M3, read-out: Plasma concentration, IV Time 0.250 h", "value": 16000, "unit": "ng/mL"}, {"measurement": "concentration at 0.25 h", "setting": "iv, 4 mg/kg, IV 4 mg/Kg, mean of 3 mice, read-out: Plasma concentration, IV Time 0.250 h, Mean IV", "value": 13000, "unit": "ng/mL"}, {"measurement": "concentration at 0.5 h", "setting": "iv, 4 mg/kg, IV 4 mg/Kg, individual mice M1-M3, read-out: Plasma concentration, IV Time 0.500 h", "value": 11700, "unit": "ng/mL"}, {"measurement": "concentration at 0.5 h", "setting": "iv, 4 mg/kg, IV 4 mg/Kg, mean of 3 mice, read-out: Plasma concentration, IV Time 0.500 h, Mean IV", "value": 10500, "unit": "ng/mL"}, {"measurement": "concentration at 1 h", "setting": "iv, 4 mg/kg, IV 4 mg/Kg, individual mice M1-M3, read-out: Plasma concentration, IV Time 1.00 h", "value": 9340, "unit": "ng/mL"}, {"measurement": "concentration at 1 h", "setting": "iv, 4 mg/kg, IV 4 mg/Kg, mean of 3 mice, read-out: Plasma concentration, IV Time 1.00 h, Mean IV", "value": 8430, "unit": "ng/mL"}, {"measurement": "concentration at 2 h", "setting": "iv, 4 mg/kg, IV 4 mg/Kg, individual mice M1-M3, read-out: Plasma concentration, IV Time 2.00 h", "value": 7410, "unit": "ng/mL"}, {"measurement": "concentration at 2 h", "setting": "iv, 4 mg/kg, IV 4 mg/Kg, mean of 3 mice, read-out: Plasma concentration, IV Time 2.00 h, Mean IV", "value": 6140, "unit": "ng/mL"}, {"measurement": "concentration at 4 h", "setting": "iv, 4 mg/kg, IV 4 mg/Kg, individual mice M1-M3, read-out: Plasma concentration, IV Time 4.00 h", "value": 3280, "unit": "ng/mL"}, {"measurement": "concentration at 4 h", "setting": "iv, 4 mg/kg, IV 4 mg/Kg, mean of 3 mice, read-out: Plasma concentration, IV Time 4.00 h, Mean IV", "value": 2600, "unit": "ng/mL"}, {"measurement": "concentration at 8 h", "setting": "iv, 4 mg/kg, IV 4 mg/Kg, individual mice M1-M3, read-out: Plasma concentration, IV Time 8.00 h", "value": 905, "unit": "ng/mL"}, {"measurement": "concentration at 8 h", "setting": "iv, 4 mg/kg, IV 4 mg/Kg, mean of 3 mice, read-out: Plasma concentration, IV Time 8.00 h, Mean IV", "value": 743, "unit": "ng/mL"}, {"measurement": "concentration at 24 h", "setting": "iv, 4 mg/kg, IV 4 mg/Kg, individual mice M1-M3, read-out: Plasma concentration, IV Time 24.0 h", "value": 3.29, "unit": "ng/mL"}, {"measurement": "concentration at 24 h", "setting": "iv, 4 mg/kg, IV 4 mg/Kg, mean of 3 mice, read-out: Plasma concentration, IV Time 24.0 h, Mean IV", "value": 2.65, "unit": "ng/mL"}, {"measurement": "AUC0-inf", "setting": "iv, 4 mg/kg, IV 4 mg/Kg, individual mice M1-M3, read-out: AUC0-inf", "value": 41900, "unit": "ng·h/mL"}, {"measurement": "AUC(0-t)", "setting": "iv, 4 mg/kg, IV 4 mg/Kg, individual mice M1-M3, read-out: AUC0-last", "value": 41900, "unit": "ng·h/mL"}, {"measurement": "C0", "setting": "iv, 4 mg/kg, IV 4 mg/Kg, individual mice M1-M3, read-out: C0", "value": 22700, "unit": "ng/mL"}, {"measurement": "clearance", "setting": "iv, 4 mg/kg, IV 4 mg/Kg, individual mice M1-M3, read-out: Cl", "value": 1.59, "unit": "mL/min/kg"}, {"measurement": "MRT inf", "setting": "iv, 4 mg/kg, IV 4 mg/Kg, individual mice M1-M3, read-out: MRT0-inf", "value": 2.78, "unit": "h"}, {"measurement": "MRT last", "setting": "iv, 4 mg/kg, IV 4 mg/Kg, individual mice M1-M3, read-out: MRT0-last", "value": 2.77, "unit": "h"}, {"measurement": "half-life", "setting": "iv, 4 mg/kg, IV 4 mg/Kg, individual mice M1-M3, read-out: T1/2 (converted)", "value": 120, "unit": "min"}, {"measurement": "Vd", "setting": "iv, 4 mg/kg, IV 4 mg/Kg, individual mice M1-M3, read-out: Vdss", "value": 0.265, "unit": "L/kg"}, {"measurement": "AUC0-inf", "setting": "iv, 4 mg/kg, IV 4 mg/Kg, mean of 3 mice, read-out: AUC0-inf, Mean IV", "value": 35400, "unit": "ng·h/mL"}, {"measurement": "AUC(0-t)", "setting": "iv, 4 mg/kg, IV 4 mg/Kg, mean of 3 mice, read-out: AUC0-last, Mean IV", "value": 35400, "unit": "ng·h/mL"}, {"measurement": "clearance", "setting": "iv, 4 mg/kg, IV 4 mg/Kg, mean of 3 mice, read-out: Cl, Mean IV", "value": 1.92, "unit": "mL/min/kg"}, {"measurement": "MRT inf", "setting": "iv, 4 mg/kg, IV 4 mg/Kg, mean of 3 mice, read-out: MRT0-inf, Mean IV", "value": 2.67, "unit": "h"}, {"measurement": "MRT last", "setting": "iv, 4 mg/kg, IV 4 mg/Kg, mean of 3 mice, read-out: MRT0-last, Mean IV", "value": 2.67, "unit": "h"}, {"measurement": "half-life", "setting": "iv, 4 mg/kg, IV 4 mg/Kg, mean of 3 mice, read-out: T1/2, Mean IV (converted)", "value": 120, "unit": "min"}, {"measurement": "Vd", "setting": "iv, 4 mg/kg, IV 4 mg/Kg, mean of 3 mice, read-out: Vdss, Mean IV", "value": 0.306, "unit": "L/kg"}, {"measurement": "concentration at 0.25 h", "setting": "po, 20 mg/kg, PO 20 mg/Kg, mean of 3 mice, read-out: Plasma concentration, PO Time 0.250 h, Mean PO", "value": 33300, "unit": "ng/mL"}, {"measurement": "concentration at 0.5 h", "setting": "po, 20 mg/kg, PO 20 mg/Kg, individual mice M4-M6, read-out: Plasma concentration, PO Time 0.500 h", "value": 20400, "unit": "ng/mL"}, {"measurement": "concentration at 0.5 h", "setting": "po, 20 mg/kg, PO 20 mg/Kg, mean of 3 mice, read-out: Plasma concentration, PO Time 0.500 h, Mean PO", "value": 30100, "unit": "ng/mL"}, {"measurement": "concentration at 1 h", "setting": "po, 20 mg/kg, PO 20 mg/Kg, individual mice M4-M6, read-out: Plasma concentration, PO Time 1.00 h", "value": 19300, "unit": "ng/mL"}, {"measurement": "concentration at 1 h", "setting": "po, 20 mg/kg, PO 20 mg/Kg, mean of 3 mice, read-out: Plasma concentration, PO Time 1.00 h, Mean PO", "value": 30000, "unit": "ng/mL"}, {"measurement": "concentration at 2 h", "setting": "po, 20 mg/kg, PO 20 mg/Kg, individual mice M4-M6, read-out: Plasma concentration, PO Time 2.00 h", "value": 18500, "unit": "ng/mL"}, {"measurement": "concentration at 2 h", "setting": "po, 20 mg/kg, PO 20 mg/Kg, mean of 3 mice, read-out: Plasma concentration, PO Time 2.00 h, Mean PO", "value": 22400, "unit": "ng/mL"}, {"measurement": "concentration at 4 h", "setting": "po, 20 mg/kg, PO 20 mg/Kg, individual mice M4-M6, read-out: Plasma concentration, PO Time 4.00 h", "value": 10200, "unit": "ng/mL"}, {"measurement": "concentration at 4 h", "setting": "po, 20 mg/kg, PO 20 mg/Kg, mean of 3 mice, read-out: Plasma concentration, PO Time 4.00 h, Mean PO", "value": 11200, "unit": "ng/mL"}, {"measurement": "concentration at 8 h", "setting": "po, 20 mg/kg, PO 20 mg/Kg, individual mice M4-M6, read-out: Plasma concentration, PO Time 8.00 h", "value": 4330, "unit": "ng/mL"}, {"measurement": "concentration at 8 h", "setting": "po, 20 mg/kg, PO 20 mg/Kg, mean of 3 mice, read-out: Plasma concentration, PO Time 8.00 h, Mean PO", "value": 3790, "unit": "ng/mL"}, {"measurement": "concentration at 24 h", "setting": "po, 20 mg/kg, PO 20 mg/Kg, mean of 3 mice, read-out: Plasma concentration, PO Time 24.0 h, Mean PO", "value": 39.1, "unit": "ng/mL"}, {"measurement": "AUC0-inf", "setting": "po, 20 mg/kg, PO 20 mg/Kg, individual mice M4-M6, read-out: AUC0-inf", "value": 108000, "unit": "ng·h/mL"}, {"measurement": "AUC(0-t)", "setting": "po, 20 mg/kg, PO 20 mg/Kg, individual mice M4-M6, read-out: AUC0-last", "value": 108000, "unit": "ng·h/mL"}, {"measurement": "MRT inf", "setting": "po, 20 mg/kg, PO 20 mg/Kg, individual mice M4-M6, read-out: MRT0-inf", "value": 4.31, "unit": "h"}, {"measurement": "MRT last", "setting": "po, 20 mg/kg, PO 20 mg/Kg, individual mice M4-M6, read-out: MRT0-last", "value": 4.26, "unit": "h"}, {"measurement": "half-life", "setting": "po, 20 mg/kg, PO 20 mg/Kg, individual mice M4-M6, read-out: T1/2 (converted)", "value": 160, "unit": "min"}, {"measurement": "Tmax", "setting": "po, 20 mg/kg, PO 20 mg/Kg, individual mice M4-M6, read-out: Tmax", "value": 15, "unit": "min"}]}
